Assay results reported in patent publication US9676728B2, “2-benzyl-benzimidazole complement factor B inhibitors and uses thereof” (Novartis AG, priority 2013, dated 2017).

The compounds below were run against Recombinant human factor B (Homo sapiens (Human), UniProt P00751) (assay: Human Complement Factor B TR-FRET Assay (displacement of Cy5-labeled ligand)).
Sequence of Recombinant human factor B (P00751 26-764): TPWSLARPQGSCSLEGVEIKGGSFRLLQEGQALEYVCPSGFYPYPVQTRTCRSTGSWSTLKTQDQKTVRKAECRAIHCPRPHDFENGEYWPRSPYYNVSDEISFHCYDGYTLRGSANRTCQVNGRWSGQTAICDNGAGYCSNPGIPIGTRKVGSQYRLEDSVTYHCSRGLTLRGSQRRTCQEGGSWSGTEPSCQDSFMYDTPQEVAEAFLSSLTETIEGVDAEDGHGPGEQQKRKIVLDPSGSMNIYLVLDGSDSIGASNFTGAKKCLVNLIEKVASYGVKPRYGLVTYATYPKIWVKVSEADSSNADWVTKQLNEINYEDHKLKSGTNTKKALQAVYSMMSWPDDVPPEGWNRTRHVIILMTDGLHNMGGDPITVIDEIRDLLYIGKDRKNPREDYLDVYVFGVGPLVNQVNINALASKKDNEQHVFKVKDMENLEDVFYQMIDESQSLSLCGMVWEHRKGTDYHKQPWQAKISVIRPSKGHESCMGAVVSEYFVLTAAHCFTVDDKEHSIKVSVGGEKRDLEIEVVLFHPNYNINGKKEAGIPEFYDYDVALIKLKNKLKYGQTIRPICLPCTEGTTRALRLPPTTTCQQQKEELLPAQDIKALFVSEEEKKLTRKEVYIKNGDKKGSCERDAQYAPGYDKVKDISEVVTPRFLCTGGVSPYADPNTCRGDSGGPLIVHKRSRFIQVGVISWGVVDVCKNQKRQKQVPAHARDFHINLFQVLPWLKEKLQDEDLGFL
Work on `COc1cc(C)c(Br)c(C)c1C(O)(c1nc2cc(C#N)ccc2[nH]1)C(F)(F)F` (racemic) [Example 4, (±)-2-(1-(3-bromo-6-methoxy-2,4-dimethylphenyl)-2,2,2-trifluoro-1-hydroxyethyl)-1H-benzo[d]imidazole-5-carbonitrile] yielded an IC50 of 98.9 µM. `CNC(c1nc2cc(C#N)ccc2[nH]1)(c1c(OC)cc(C)c(Br)c1C)C(F)(F)F` (racemic) [Example 6-E, (±)-2-(1-(3-Bromo-6-methoxy-2,4-dimethylphenyl)-2,2,2-trifluoro-1-(methylamino)ethyl)-1H-benzo[d]imidazole-5-carbonitrile] gave an IC50 of 7 µM. `COc1cc(C)cc(C)c1C(OCC(N)=O)(c1nc2cc(C#N)ccc2[nH]1)C(F)(F)F` (racemic) [Example 10-C, (±)-2-(1-(5-Cyano-1H-benzo[d]imidazol-2-yl)-2,2,2-trifluoro-1-(2-methoxy-4,6-dimethylphenyl)ethoxy)acetamide] was tested, and the IC50 was 0.47 µM.

The compounds below were run against human complement factor B (CVF-Bb complex) (Homo sapiens (Human), UniProt P00751) (assay: biochemical).
Experimental: CVF-Bb complex prepared from purified cobra venom factor (1 μM), recombinant human complement factor B (expressed in drosophila cells and purified using standard methods) and human complement factor D (expressed in E. Coli, refolded and purified using standard methods). CVF-Bb complex at 3 nM concentration was incubated with test compound at various concentrations for 1 hour at room temperature in PBS pH 7.4 containing 10 mM MgCl2 and 0.05% (w/v) CHAPS. Human complement C3 substrate purified from plasma was added to a final concentration of 1 μM. After 1 hour incubation at room temperature, the enzyme reaction was stopped by addition of a cocktail of concentrated pan-protease inhibitors. The product of the reaction, C3a, was quantified by means of an enzyme-linked-immunosorbent assay.
Compound `COc1cc(C)cc(C)c1C(O)c1nc2cc(C#N)ccc2[nH]1` (racemic) [Example 1-C, (±)-2-(Hydroxy(2-methoxy-4,6-dimethylphenyl)methyl)-1H-benzo[d]imidazole-5-carbonitrile] has an IC50 of 5.75 µM. In the case of `COc1cc(C)cc(C)c1C(C)(O)c1nc2cc(C#N)ccc2[nH]1` (racemic) [Example 2-C, (±)-2-(1-Hydroxy-1-(2-methoxy-4,6-dimethylphenyl)ethyl)-1H-benzo[d]imidazole-5-carbonitrile], the IC50 is reported as 1.45 µM. `COc1cc(C)cc(C)c1C(O)(c1nc2cc(C#N)ccc2[nH]1)C(F)(F)F` (racemic) [Example 3-B, (±)-2-(2,2,2-Trifluoro-1-hydroxy-1-(2-methoxy-4,6-dimethylphenyl)ethyl)-1H-benzo[d]imidazole-5-carbonitrile] showed an IC50 of 0.39 µM. For `CNC(c1nc2cc(C#N)ccc2[nH]1)(c1ccc(C)cc1OC)C(F)(F)F` (racemic) [Example 6-A, (±)-2-(2,2,2-Trifluoro-1-(2-methoxy-4-methylphenyl)-1-(methylamino)ethyl)-1H-benzo[d]imidazole-5-carbonitrile], the IC50 was 0.38 µM. With `CNC(c1nc2cc(C#N)ccc2[nH]1)(c1c(OC)cc(C)c(Cl)c1C)C(F)(F)F` (racemic) [Example 6-B, (±)-2-(1-(3-Chloro-6-methoxy-2,4-dimethylphenyl)-2,2,2-trifluoro-1-(methylamino)ethyl)-1H-benzo[d]imidazole-5-carbonitrile] the IC50 was 1.98 µM. `CNC(c1nc2cc(C#N)ccc2[nH]1)(c1c(C)cccc1OC)C(F)(F)F` (racemic) [Example 6-C, (±)-2-(2,2,2-Trifluoro-1-(2-methoxy-6-methylphenyl)-1-(methylamino)ethyl)-1H-benzo[d]imidazole-5-carbonitrile] gave an IC50 of 3.13 µM. In the case of `COc1cc(C)cc(C)c1C(N)(c1nc2cc(C#N)ccc2[nH]1)C(F)(F)F` (racemic) [Example 6-D, (±)-2-(1-Amino-2,2,2-trifluoro-1-(2-methoxy-4,6-dimethylphenyl)ethyl)-1H-benzo[d]imidazole-5-carbonitrile], the IC50 is reported as 1.57 µM. `COc1cc(C)cc(C)c1C(N)c1nc2cc(C#N)ccc2[nH]1` (racemic) [Example 7-D, (±)-2-(Amino(2-methoxy-4,6-dimethylphenyl)methyl)-1H-benzo[d]imidazole-5-carbonitrile] was tested, and the IC50 was 8.7 µM. `COc1cc(C)cc(C)c1C(C)(N)c1nc2cc(C#N)ccc2[nH]1` (racemic) [Example 8-B, (±)-2-(1-Amino-1-(2-methoxy-4,6-dimethylphenyl)ethyl)-1H-benzo[d]imidazole-5-carbonitrile] was tested, and the IC50 was 6.9 µM. `COc1cc(C)cc(C)c1C(N)(c1nc2cc(C#N)ccc2[nH]1)C1CC1` (racemic) [Example 9-C, (±)-2-(Amino(cyclopropyl)(2-methoxy-4,6-dimethylphenyl)methyl)-1H-benzo[d]imidazole-5-carbonitrile] was tested, and the IC50 was 1.5 µM. Compound `CNC(c1nc2cc(C#N)ccc2[nH]1)c1c(OC)cc(C)cc1OC` (racemic) [Example 12-D (A), (±)-2-((2,6-Dimethoxy-4-methylphenyl)(methylamino)methyl)-1H-benzo[d]imidazole-5-carbonitrile] has an IC50 of 13.9 µM. With `CNC(c1nc2cc(C#N)ccc2[nH]1)(c1c(OC)cc(C)cc1OC)C(F)(F)F` (racemic) [Example 12-D (B), (±)-2-(1-(2,6-dimethoxy-4-methylphenyl)-2,2,2-trifluoro-1-(methylamino)ethyl)-1H-benzo[d]imidazole-5-carbonitrile] the IC50 was 11.1 µM.
